Source: paper PMC8277129, “Bioconcentration of Several Series of Cationic Surfactants in Rainbow Trout” (Environmental Science & Technology, 2021)
One block for each compound: values may come before it.

What was measured:
[1] = parameters: method as in Perrin 1965, SRC, REACH, Perrin 1972, Hall 1957; conditions: ref Perrin 1965, SRC, REACH, Perrin 1972, Hall 1957, cited from earlier work; for pKa, experimental reference data: 25 °C
[2] = parameters: method as in REACH dossier; conditions: aqueous; ref REACH dossier; cited from earlier work
[3] = ref Timmer and Droge (2017); cited from earlier work
[4] = test system: juvenile rainbow trout (Oncorhynchus mykiss); assay: Bioconcentration (BCF) experiment based on OECD 305, aqueous exposure to surfactant mixtures; type: in vivo; conditions: for uptake rate constant (kU): 14 d exposure, 28 d depuration; for uptake rate constant (kU) / BCF (kU/kT) / measured total elimination rate constant (kT): whole fish
Method: Juvenile rainbow trout were purchased from EM lax in Västervik, Sweden, and held in the aquaria facility for one month prior to starting the experiment on August 28, 2018. Ethical approval for the experiments was obtained from Stockholm’s djurförsöksetiska nämnd (decision 9967–2017). The experiment was conducted in six 350 L fiberglass aquaria with a water renewal rate of 1.5 L min^–1 corresponding to a turnover time of […]. The water temperature and the air temperature in the aquaria room were 10 °C. The lighting was dim and programmed on a 12 h light/12 h dark cycle.
Three BCF experiments were conducted, one each for MIX1 and MIX2 at pH ∼7.6 (denoted MIX1 and MIX2 in the following), and one for MIX1 at pH ∼6.2 (MIX1pH). Each experiment consisted of a 14 d exposure phase and a 28 d depuration phase. There were also two control aquaria where unexposed fish were kept, one at pH 7.6 and one at pH 6.2. For the pH 6.2 aquaria, a 20% v:v formic acid solution was pumped into a premixing basin where it was mixed with the inflowing water before entering the aquarium. pH sensors monitored pH in the premixing basin and the aquarium. The pH for the MIX1 and MIX2 experiments was governed by the pH of the water supply. Water samples were collected at 8 time points during each experiment for the determination of pH and alkalinity. Water samples were collected daily during the exposure phase for determination of total organic carbon (TOC), which was measured with NDIR detection after acidification, purging and high-temperature catalytic combustion (Shimadzu TOC-L).
For the exposure phase, a methanol solution of the test chemical mixture was infused continuously at 4.0 μL min^–1 into the water inflow of the aquarium using a syringe pump. The target concentrations of the chemicals in water ranged from 2.5 to 100 μg L^–1 (Table 1). They were selected to be as low as possible to minimize the risk of toxic effects while still being high enough to enable collection of high-quality data, building on the results of the tissue distribution experiment.[32] The syringe pump was started in an aquarium containing no fish. After 16 h to allow the concentrations to stabilize, ∼80 rainbow trout were transferred to the aquarium. Over the following 14 d water samples were collected and fish were sacrificed according to the schedule in Table S5. The remaining fish were then transferred to a second aquarium that received water without chemical addition. Over the following 28 d further water samples were collected and fish were sacrificed (Table S5).
At each fish sampling, 4–6 fish were sacrificed. Fish were also sampled periodically from the control aquaria. Following stunning and severance of the spinal cord, the fish were placed in a polyethylene bag, weighed, and immediately frozen at −20 °C. The median fish weight at sacrifice was 10.94 g, with a 25th and 75th percentile of 8.43 and 13.58 g, respectively.
Three fish from each time point were prioritized for analysis based on proximity to the median fish weight. Each fish was semithawed, cut into 3–4 pieces, and homogenized with an Ultra-Turrax device. 150 mg of the homogenate was transferred to a preweighed 13 mL polypropylene tube, centrifuged to a pellet, and weighed. 50 μL of methanol was added and the prepared aliquot was frozen. For extraction internal standard solution (isotope labeled standards of Q10 (D21), Q14 (D29), and P16 (D33)), 3 mL of methanol and 3 steel balls (3.2 mm diameter) were added to the prepared aliquot. This mixture was mixed in a bullet blender for 1 min, and then placed in an ultrasound bath at 50 °C for 60 min. Following centrifugation, the supernatant was decanted and the extraction was repeated. The extracts were combined and a portion corresponding to 25–50 mg homogenate was cleaned up on a weak cationic exchange SPE column (WCX, 60 mg) as described elsewhere.[32] […]

[5] = test system: gills of rainbow trout; assay: Mechanistic one-box mass balance model of gill uptake and elimination; conditions: for predicted gill elimination rate constant eq 1 (k2): from measured kU and modeled αW, αB, DFW
Excerpt: To gain more mechanistic insight into the results, we formulated a simple one-box mass balance model of chemical bioconcentration in fish that considered diffusive uptake and elimination across the gills as well as biotransformation.[33] The flow of water across the gills and the flow of blood through the gills were modeled as perfusion limited resistances that constrain gill uptake and elimination. […] Consequently, these resistances are unknowns. Ion trapping effects caused by differences in pH between water at the gill surface and blood in the gills are considered, drawing on previous work on the uptake and elimination of ionizable organic chemicals across the gills of rainbow trout.[22],[23] Partitioning of the chemical from the dissolved phase into blood and into whole fish was calculated as the product of the membrane lipid–water distribution ratio (DMLW,T, including partitioning of both the neutral and the charged forms) and the fraction of membrane lipid in blood and whole fish. A detailed description of the model is provided in the SI (Text S3).
The contribution of the water perfusion and blood perfusion resistances were compared with the overall resistance for transport across the gills from water to blood (RW→B), which was calculated from the measured kU according to equation S4.3. […] For all of the other chemicals the blood resistance is insignificant compared to the overall resistance.
The rate constant for elimination across the gills, k2, can be defined as follows: [drawing 1] 1 where αB and αW are the neutral fractions of the chemical in the blood and in the water at the gill surface, respectively, and DFW is the fish-water distribution ratio of the chemical at the pH of blood (8.1) (see Text S3). Using the measured kU and the values of αW, αB, and DFW estimated for the model, k2 was calculated (Table 2).

Structure (SMILES): CCCCCCN [hexylamine, reference compound]
pKa, experimental reference data [1]: 10.64

Structure (SMILES): CCCCCCCCCCCCCC[N+](C)(C)Cc1ccccc1.[Cl-] [benzyldimethyltetradecylazanium chloride]
SURFACE TENSION [2]: 34.5 mN/m

Structure (SMILES): CCCCNC [N-methylbutylamine, reference compound]
pKa, experimental reference data [1]: 10.9

Structure (SMILES): CCCCNCCCC [N-butylbutan-1-amine]
SURFACE TENSION [2]: 50.6 mN/m

Structure (SMILES): CCCCCCCCCCCCCC[N+](C)(C)CCCCCCCCCCCCCC.[Cl-] [N,N-dimethyl-N-tetradecyltetradecan-1-aminium chloride]
SURFACE TENSION [2]: 28 mN/m

factor by which BCF is lower at pH 6.2 than at pH 7.6 ([4]; MIX1 vs MIX1pH): 17
factor by which kT is greater at pH 6.2 than at pH 7.6 ([4]; MIX1 vs MIX1pH): 1.7
factor by which kU is lower at pH 6.2 than at pH 7.6 ([4]; MIX1 vs MIX1pH): 10
uptake rate constant (kU) ([4]; pH 6.2 (MIX1pH)): 1.02 L kg^–1 h^–1
BCF (kU/kT) ([4]; pH 6.2 (MIX1pH)): 7.9 L kg^–1
measured total elimination rate constant (kT) ([4]; pH 6.2 (MIX1pH)): 0.129 h^–1
uptake rate constant (kU) ([4]; pH 7.6 (MIX1, MIX2), 10 °C): 9.9 L kg^–1 h^–1
BCF (kU/kT) ([4]; pH 7.6 (MIX1, MIX2)): 134 L kg^–1
measured total elimination rate constant (kT) ([4]; pH 7.6 (MIX1, MIX2)): 0.074 h^–1
k2/kT ([5]; pH 6.2 (MIX1pH)): 4.1
predicted gill elimination rate constant eq 1 (k2) ([5]; pH 6.2 (MIX1pH)): 0.53 h^–1
factor by which k2 exceeded kT ([5]; pH 6.2 experiment): 4
factor by which k2 exceeded kT ([5]; pH 7.6): ~5
k2/kT ([5]; pH 7.6 (MIX1, MIX2)): 5.0
predicted gill elimination rate constant eq 1 (k2) ([5]; pH 7.6 (MIX1, MIX2)): 0.37 h^–1
Structure (SMILES): CCCCCCCCCCN(C)C [T10, N,N-dimethyldecylamine]
Log DMLW,C (membrane-water partition coefficient of the charged form) [3]: 3.65
pKa used (selected value) ([1]; selected per amine type, weighted from simulated and experimental analogue data): C10N(CH3)2 (10.0)

Structure (SMILES): CCCN(C)C [N,N-dimethylpropylamine, reference compound]
pKa, experimental reference data [1]: 9.99

Structure (SMILES): CCCCCCCCN [octan-1-amine]
SURFACE TENSION [2]: 44.2 mN/m

Structure (SMILES): CCCCCCCCCCCCN [dodecan-1-amine]
SURFACE TENSION [2]: 23.1 mN/m

Structure (SMILES): CCCCCCCC/C=C/CCCCCCCCN(CCO)CCO [2-[(2-hydroxyethyl)[(9E)-octadec-9-en-1-yl]amino]ethan-1-ol]
SURFACE TENSION [2]: 27 mN/m

Structure (SMILES): CCCCCCCCCCCCCCCCCCN [octadecan-1-amine]
SURFACE TENSION [2]: 23.9 mN/m
